According to PubChem BioAssay (NCI):
“And” between values parts separate entries of the source, which are not always exact repeats. Identical values can stand only once.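 Dose response: 5 concentrations. Exposure: 48 h. Format: 96-well plates. Endpoint: linear interpolation; highest concentration if not reached. GI50 marks 50% less growth. TGI: total growth inhibition.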

Key:
Assay in all cases: NCI anticancer screen, dose series, 48 h
ACHN renal = system: ACHN renal
CAKI-1 renal = system: CAKI-1 renal
HCC-2998 colon = system: HCC-2998 colon
HOP-62 NSCLC = system: HOP-62 NSCLC
MALME-3M melanoma = system: MALME-3M melanoma
NCI-H522 lung = system: NCI-H522 lung
SNB-19 CNS = system: SNB-19 CNS
SW-620 colon = system: SW-620 colon
UACC-257 melanoma = system: UACC-257 melanoma
MDA-MB-435 = system: MDA-MB-435
MDA-N = system: MDA-N
NCI/ADR-RES ovarian = system: NCI/ADR-RES ovarian
SR leukemia = system: SR leukemia

Structure (SMILES)	TGI (ACHN renal) [µM]	TGI (CAKI-1 renal) [µM]	TGI (HCC-2998 colon)	TGI (HOP-62 NSCLC) [µM]	TGI (MALME-3M melanoma) [µM]	TGI (NCI-H522 lung)	TGI (SNB-19 CNS) [µM]	TGI (SW-620 colon) [µM]	TGI (UACC-257 melanoma) [µM]	TGI (MDA-MB-435) [µM]	TGI (MDA-N) [µM]	TGI (NCI/ADR-RES ovarian) [µM]	TGI (SR leukemia) [µM]	GI50 (ACHN renal)	GI50 (CAKI-1 renal)	GI50 (HCC-2998 colon)	GI50 (MALME-3M melanoma)	GI50 (SNB-19 CNS) [µM]	GI50 (SW-620 colon) [µM]
COc1ccc(C2=NC(CO)[C@H](c3ccccc3)O2)cc1OC (some centres undefined)	> 100	> 100	> 100 µM	> 100	> 100	> 100 µM	> 100	> 100	> 100	–	–	–	–	–	–	–	–	–	–
COC(=O)C1=CCC[C@H]2[C@@]1(COC(C)=O)CC[C@@H](C)[C@]2(C)CC(=O)c1ccoc1	> 50	> 50	37.5 µM	–	–	22 µM	> 50	> 50	> 50	> 50	> 50	> 50	–	–	–	–	–	–	–
CC(=O)O[C@H]1[C@@H](N2CCCCC2)C[C@H]2[C@@H]3CC=C4C[C@@H](N5CCCC5)CC[C@]4(C)[C@H]3CC[C@@]21C	> 100	> 100	34.4 µM	> 100	52.4	> 100 µM	> 100	> 100	87.7	> 100	–	> 100	8.96	–	–	–	–	–	–
O=[N+]([O-])/C(C(Cl)=C(Cl)Cl)=C(\NCc1ccccc1)Sc1ccccc1	> 100	> 100	> 100 µM	57.1	33.3	–	> 100	42.6	> 100	41.3	> 100	69.7	–	–	–	–	–	–	–
CCN1C(c2ccccc2)=CC(c2ccccc2)(C(Cl)(Cl)Cl)C=C1c1ccccc1	> 100	> 100	24.9 µM	> 100	24	> 100 µM	> 100	> 100	> 100	9.51	> 100	> 100	–	–	–	–	–	–	–
O=C1CSc2ccnc(=O)n21	> 100	> 100	> 100 µM	> 100	> 100	> 100 µM	> 100	> 100	> 100	> 100	> 100	–	> 100	–	–	–	–	–	–
O=C(CC(=O)n1nc(-c2ccccc2)c(N=Nc2ccc([N+](=O)[O-])cc2)c1-c1ccccc1)Nc1ccc(Cl)cc1	19.2	99.3	91.4 µM	42.7	> 100	> 100 µM	81.6	> 100	> 100	–	–	–	> 100	–	–	–	–	–	–
C[C@]12CC/C(=N\OCCN3CCCC3)C=C1CCC1C2CC[C@@]2(C)C1CC[C@]2(C)O (some centres undefined)	50.3	24.1	24.3 µM	50	18.7	8.57 µM	49	–	17.8	6.67	6.33	15.4	–	–	–	–	–	–	–
CC1CCC2C(C(=O)O[C@H]3C4C=CO[C@@H](OC5OC(CO)C(O)C(O)C5O)C4[C@@]4(CO)O[C@@H]34)=CO[C@@H](OC3OC(CO)C(O)C(O)C3O)C12 (some centres undefined)	> 10	> 10	> 10 µM	> 10	> 10	> 10 µM	> 10	> 10	> 10	> 10	> 10	> 10	–	–	–	–	–	–	–
CC(=O)NC1=C(NCCO)C(=O)c2ccccc2C1=O	> 50	–	> 50 µM	> 50	46	> 50 µM	> 50	> 50	> 50	–	–	–	> 50	–	–	–	–	–	–
COc1cc(Br)c(C=Nc2cccc3ccc(OS(=O)(=O)c4ccc([N+](=O)[O-])cc4)cc23)cc1OC	> 100	> 100	> 100 µM	> 100	> 100	> 100 µM	> 100	> 100	> 100	–	–	–	> 100	–	–	–	–	–	–
COc1ccc2c(c1)C1Oc3ccccc3CC1CO2 (centres undefined)	> 100	> 100	42.7 µM	> 100	> 100	> 100 µM	> 100	> 100	> 100	> 100	> 100	> 100	–	–	–	–	–	–	–
c1ccc(Nc2nnc(-c3ccccc3Nc3ccccc3-c3nnc(Nc4ccccc4)s3)s2)cc1	> 100	–	> 100 µM	> 100	> 100	> 100 µM	> 100	> 100	> 100	> 100	> 100	> 100	–	–	–	–	–	–	–
COc1ccccc1OC/C(N=Cc1cccnc1)=N/NC(=O)c1ccncc1	> 100	> 100	> 100 µM	> 100	> 100	> 100 µM	> 100	> 100	> 100	> 100	> 100	> 100	–	–	–	–	–	–	–
O=C1C[C@@H]2[C@@H](C=CC23CCCC3)N1O	> 100	> 100	> 100 µM	> 100	> 100	> 100 µM	> 100	> 100	> 100	–	–	–	–	–	–	–	–	–	–
CN(C)c1ccc(-c2nc(N)nc3c2CCCC3)cc1	76.9	> 100	> 100 µM	> 100	> 100	98.1 µM	> 100	> 100	–	–	–	–	–	–	–	–	–	–	–
CCOC(=O)c1sc2c(c1OC(=O)c1ccco1)c(=O)n(-c1ccccc1)c(=S)n2-c1ccccc1	83.8	82.8	> 100 µM	> 100	60.6	> 100 µM	> 100	> 100	> 100	93	> 100	57	–	–	–	–	–	–	–
O=C(NC1C(=O)NC(CCc2ccccc2)NC1=O)OCc1ccccc1 (centres undefined)	> 100	> 100	–	> 100	> 100	> 100 µM	> 100	> 100	> 100	> 100	–	> 100	> 100	–	–	–	–	–	–
COc1cc2c(c(OC)c1OC)[C@@H]1CCCCC[C@@H]1CCC2=O	> 100	> 100	> 100 µM	> 100	> 100	> 100 µM	> 100	> 100	> 100	–	–	–	> 59.2	–	–	–	–	–	–
COc1cc(CNc2ccc(C)cc2)cc(OC)c1OC	> 100	> 100	1.16 µM and 2.48 µM	> 100	> 100	0.435 µM and 0.83 µM	> 100	–	> 100	–	–	–	> 100	0.674 µM and 0.216 µM	0.235 µM and 0.0641 µM	0.124 µM and 0.365 µM	0.276 µM and 0.658 µM	0.959	0.203

Structure (SMILES)	TGI (ACHN renal) [µM]	TGI (CAKI-1 renal) [µM]	TGI (HCC-2998 colon)	TGI (HOP-62 NSCLC) [µM]	TGI (MALME-3M melanoma) [µM]	TGI (NCI-H522 lung)	TGI (SNB-19 CNS) [µM]	TGI (SW-620 colon) [µM]	TGI (UACC-257 melanoma) [µM]	TGI (MDA-MB-435) [µM]	TGI (MDA-N) [µM]	TGI (NCI/ADR-RES ovarian) [µM]	TGI (SR leukemia) [µM]	GI50 (ACHN renal)	GI50 (CAKI-1 renal)	GI50 (HCC-2998 colon)	GI50 (MALME-3M melanoma)	GI50 (SNB-19 CNS) [µM]	GI50 (SW-620 colon) [µM]
C#CCNC(CCCN=C(N)N)C(=O)O (centres undefined)	> 100	> 100	> 100 µM	> 100	> 100	> 100 µM	> 100	> 100	> 100	> 100	–	> 100	> 100	–	–	–	–	–	–
Nc1ccc(C(=O)NN2C(=O)C(Cl)C2c2ccc(O)cc2)cc1 (centres undefined)	> 100	51.3	–	38.4	32.9	24.4 µM	31.4	44.7	> 100	–	–	–	–	–	–	–	–	–	–
CCCCCCCCCCCC(=O)OCC(O)CO (centres undefined)	> 100	> 100	–	> 100	–	> 100 µM	> 100	> 100	> 100	> 100	> 100	> 100	–	–	–	–	–	–	–
CN(C)/C=N/S(=O)(=O)c1nn2c(C=O)c(-c3ccc(-c4ccccc4)cc3)nc2s1	3.18	2.88	11.7 µM	22.9	2.71	1.6 µM	25.5	> 26.9	9.31	4.8	–	> 86.8	1.89	–	–	–	–	–	–
COc1c(O)ccc(/C=N/NC(=S)NCOCCOC(C)=O)c1OC	> 100	–	> 100 µM	> 100	> 100	> 100 µM	> 100	> 100	> 100	–	–	–	–	–	–	–	–	–	–
c1ccc2c(c1)n1c(N3CCCC3)[n+]3ccccc3c1c1c3cccc[n+]3c(N3CCCC3)n21	> 100	> 100	> 100 µM	–	> 100	> 100 µM	> 100	> 100	> 100	> 100	–	> 100	> 100	–	–	–	–	–	–
CC(C)CC1C(=O)OC(C)(C)OC1=O	> 100	> 100	> 100 µM	> 100	–	> 100 µM	> 100	> 100	> 100	> 100	> 100	> 100	–	–	–	–	–	–	–
CCCCCCCCC#CCCCCCCC(F)C(=O)O (centres undefined)	> 100	–	> 100 µM	> 100	> 100	> 100 µM	> 100	> 100	> 100	> 100	–	> 100	> 100	–	–	–	–	–	–
COC(=O)/C=C1/OC(c2ccccc2)=C(Br)C1=O	> 100	51.3	> 100 µM	> 100	> 100	62.2 µM	> 100	36.7	> 100	> 100	> 100	–	> 100	–	–	–	–	–	–
O=C1NCC2(CCN(CC3COc4ccccc4O3)CC2)N1c1ccccc1 (centres undefined)	> 100	> 100	> 100 µM	> 100	> 100	> 100 µM	> 100	> 100	> 100	> 100	–	> 100	> 100	–	–	–	–	–	–
CC[n+]1c(/C=C/c2cc(C(=O)OC)n3c2sc2ccccc23)sc2ccccc21	36.2	–	27.8 µM	34.8	33	30.7 µM	44	–	33.1	–	–	–	–	–	–	–	–	–	–
CCc1n[nH]c(=O)n1N	> 100	> 100	> 100 µM	> 100	> 100	> 100 µM	> 100	> 100	> 100	> 100	–	> 100	> 100	–	–	–	–	–	–
CC1=CC(=O)c2ccc3c4ccccc4n(C)c3c2C1=O	> 100	> 67.5	> 100 µM	> 100	30	78.9 µM	> 100	> 100	> 100	33.4	33.1	> 100	–	–	–	–	–	–	–
CCOC(=O)/C(=C\n1c(=O)sc2ccccc21)C(=O)c1ccccc1	> 100	64.7	> 100 µM	> 100	> 100	> 100 µM	–	> 100	> 100	> 100	–	> 100	> 100	–	–	–	–	–	–
COc1cc(C(C)c2cc3c(cc2OCCCCCOc2cc4c(cc2C(C)c2cc(OC)c(OC)c(OC)c2)OCO4)OCO3)cc(OC)c1OC (centres undefined)	> 100	> 100	> 100 µM	> 100	> 100	> 100 µM	> 100	> 100	> 100	–	–	–	> 100	–	–	–	–	–	–
C=Cc1c(-c2ccccc2)cnc2[nH]c3ccccc3c12	> 50	> 50	> 50 µM	> 50	> 50	> 50 µM	> 50	> 50	> 50	–	–	–	> 50	–	–	–	–	–	–
COc1cc(Br)c(/C=N/N=C(\N)NO)cc1OC	50.6	79	26.3 µM	70.3	60.2	37.5 µM	> 100	> 100	51	–	–	–	> 100	–	–	–	–	–	–
CCc1cccc(CC)c1Nc1nc(-c2ccccc2-c2ccccc2)cs1	> 100	> 100	> 100 µM	> 100	> 100	> 100 µM	> 100	> 100	> 100	> 100	> 100	–	> 100	–	–	–	–	–	–
COC(=O)C(C(=O)C(=O)Nc1nc2ccc(OC)cc2s1)c1cnc2ccccc2n1 (centres undefined)	> 100	> 100	> 100 µM	> 100	> 100	> 100 µM	> 100	> 100	> 100	–	–	–	–	–	–	–	–	–	–
CC(=O)/C=C1/C(=O)C(CC(C)C)=C1CC(C)C	> 100	> 100	–	> 100	> 100	> 100 µM	> 100	> 100	> 100	> 100	> 100	> 100	–	–	–	–	–	–	–
